Several values for one entry are separate records, joined by “and”; a condition that tells them apart may be missing. Identical values can stand only once. Like-named read-outs stand apart in the source and are kept apart here.
Columns and labels:
[1] = tested on: DH10B-pVSF2-lacZ/pCom10-XylC (benzaldehyde dehydrogenase XylC from Pseudomonas putida); test: Plate-based assay for β-galactosidase activity, biocat-reporter strain with XylC substrates; conditions: plates with chloramphenicol, kanamycin, X-Gal; decane vapor to induce XylC
Protocol: Cells were plated and grown as above, under decane vapor, followed by incubation at 4° C. and testing for blue colony color as above.
Strain DH10B-pVSF2-lacZ was transformed with pCom10-XylC, streaked on plates containing chloramphenicol, kanamycin, X-Gal and varying concentrations of benzaldehyde or 2-hydroxybenzaldehyde, and grown exposed to decane vapor to induce XylC. Strain DH10B-pVSF2-lacZ, carrying an empty pCom10 vector served as control.

[2] = tested on: DH10B-pVSF2-tet^r/pCom10-XylC (benzaldehyde dehydrogenase XylC from Pseudomonas putida); test: Plate-based assay for tetracycline resistance, biocat-selector strain with XylC substrates; type: cell-based, Escherichia coli; conditions: for EC50: Escherichia coli, read-out: substrate concentration required for half-maximal colony diameter, cells containing XylC, selective plates, estimated from inverse plots of FIG. 4
Text: Plasmid pCom10-XylC was re-introduced into DH10B-pVSF2-tet^r to produce the desired biocat-selector strain DH10B-pVSF2-tet^r/pCom10-XylC. This strain grew on tetracycline containing selective plates only after addition of benzaldehyde or 2-hydroxybenzaldehyde.

NahR variant = NahR variant (Pseudomonas putida, UniProt P10183, N169D); conditions: reported by de Lorenzo and coworkers (Cebolla et al., 1997); cited from earlier work
Sequence of NahR variant (P10183 whole entry N169D, the tested form may be a part): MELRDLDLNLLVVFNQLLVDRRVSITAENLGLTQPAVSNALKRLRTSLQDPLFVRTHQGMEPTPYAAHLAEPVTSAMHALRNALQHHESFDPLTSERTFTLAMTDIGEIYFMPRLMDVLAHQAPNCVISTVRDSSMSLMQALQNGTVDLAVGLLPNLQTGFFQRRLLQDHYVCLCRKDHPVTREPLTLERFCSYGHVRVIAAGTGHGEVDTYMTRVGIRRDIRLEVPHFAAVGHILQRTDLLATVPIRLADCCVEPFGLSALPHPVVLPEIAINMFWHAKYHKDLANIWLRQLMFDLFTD

[3] = tested on: DH10B-pVSF2-tet^r (NahR mutant, Psal fused to tetA)
Protocol: (§1) Each plate assay was conducted in triplicate and growth was determined by measuring the colony diameter of 10 solitary colonies for each plate.
(§2) We compared the sensitivity of the selector host for substrates and products by plotting the data of FIGS. 3 and 4 as inverse plots of 1/[colony diameter] vs 1/[compound] and estimating the concentration required for half maximal colony size.

[4] = tested on: DH10B-pVSF2-lacZ (NahR mutant, salicylate promoter Psal fused to lacZa); conditions: plates with chloramphenicol and X-Gal, 36 h at 30° C.
Protocol: E. coli DH10B cells harbouring reporter plasmid pVSF2-lacZ were streaked on the plates from a liquid culture that had been grown at 30° C. to an OD600 of 0.1. Cells were grown for 36 h at 30° C. followed by incubation at 4° C. for 24 h after which blue colony color formation was evaluated visually.

E. coli cell membranes = test: Passive diffusion across the cell envelope; type: in vitro ADME; conditions: for diffusion rate across E. coli cell membranes: estimated from studies of toluene oxidation by E. coli hosts containing xylMA
Text: This can be considered to be due to differences in the transport of benzaldehyde and benzoate through the E. coli cell envelope. Such transport is believed to involve only passive diffusion^21,22. […].
Thus, substrate influx and product efflux, though different, are quite rapid. […]

[5] = tested on: DH10B-pVSF2-tet^r (NahR mutant, Psal fused to tetA); test: microbe, parasite or virus in culture; conditions: Escherichia coli, read-out: concentration required for half maximal colony size (colony diameter 50% of maximum), product added extracellularly, selective plates; estimated from inverse plots of FIG. 3
Protocol: as §1, §2

O=Cc1ccccc1O [2-hydroxybenzaldehyde]
substrate concentration above which blue colonies were formed [1]: above 25 μM | EC50 [2]: ~0.3 µM

O=C(O)c1ccccc1O [2-hydroxybenzoate]
affinity of the NahR chemosensor, times greater than for benzoate (NahR variant): 10 | fold more effective than the parent compound in triggering tetracycline resistance ([3]; 2-hydroxy substituted vs unsubstituted compound): 15-20 | EC50 ([3]; read-out: concentration required for half maximal colony size (colony diameter 50% of maximum), product added extracellularly, selective plates, estimated from inverse plots of FIG. 3): ~20 µM and 20 µM | minimum concentration at which colonies were formed ([3]; selective media with tetracycline): 10 µM | concentration at which smaller and also fewer colonies were observed ([3]; selective plates with tetracycline): 10 µM | concentration above which blue colonies were detected [4]: higher than 10 μM | saturating concentration for blue colony formation [4]: ~100 µM

O=Cc1ccccc1 [benzaldehyde]
time for intracellular and extracellular concentrations to equilibrate (E. coli cell membranes): a few seconds | diffusion rate across E. coli cell membranes (E. coli cell membranes): exceed 180 μmol/min/g cell dry mass | substrate concentration above which blue colonies were formed [1]: above 50 μM | EC50 [2]: ~6 µM | concentration giving homogeneous growth ([2]; host with higher tetracycline tolerance, selective conditions): ~100 µM

O=C(O)c1ccccc1 [benzoate]
time for intracellular and extracellular concentrations to equilibrate (E. coli cell membranes): one minute | diffusion rate across E. coli cell membranes (E. coli cell membranes): > 10 μmol/min/g cell dry mass | EC50 [5]: ~400 µM

— patent US20090227470A1, “SELECTION OF BIOCATALYSTS FOR CHEMICAL SYNTHESIS” (priority 2005, published 2009)
